Results reported in patent US10370647B2 (priority 2015, dated 2019).

What was measured:
Low cells = format: in vivo, BALB/cAJcl-nu/nu mice; conditions: KF cell-derived tumors (Low group); 7 days after Paclitaxel 1 mg/ml/mouse
KFtx series = experiment: Paclitaxel resistance properties of the KFtx series (surviving cells, Cell Titer-Glo); format: cell-based; conditions: Low and Empty Low (low UCA1 expression); PTx 0 to 500 nM, 48 hours
Protocol: Paclitaxel resistance properties of the KFtx series comprising the cell line stably expressing UCA1 were compared. The KFtx series were seeded at a cell density of 6×10^3/well on a 96-well plate, and after the cells had been cultured at 37° C. for 12 hours, during which the cells were considered to adhere to the plate, the medium was exchanged with PTx-containing RPMI. The concentrations of PTx were set to be 0, 2, 5, 20, 50, 100, 200, and 500 nM. The cells were further cultured at 37° C. for 48 hours, and the number of surviving cells was then quantified using Cell Titer-Glo (Promega) and was then compared.

KFtx cells = format: in vivo, BALB/cAJcl-nu/nu mice; conditions: KFTx cell-derived tumors; 7 days after Paclitaxel 1 mg/ml/mouse

CC(=O)O[C@H]1C(=O)[C@@]2(C)[C@H]([C@H](OC(=O)c3ccccc3)[C@]3(O)C[C@H](OC(=O)[C@H](O)[C@@H](NC(=O)c4ccccc4)c4ccccc4)C(C)=C1C3(C)C)[C@]1(OC(C)=O)CO[C@@H]1C[C@@H]2O [PTx, Paclitaxel]
tumors disappeared (Rluc imaging) (Low cells): ≥ 95%
number of surviving cells (KFtx series): significantly decreased
tumors after administration of PTx (Rluc imaging) (KFtx cells): remained
